Test results reported in US20100298285A1, “Biclycloheteroaryl Compounds as P2x7 Modulators and Uses Thereof” (priority 2006, published 2010).
pIC50: −log10 of the molar value.

These compounds were tested on IL-1β release, THP-1 cells (assay: IL-1β release assay in differentiated THP-1 cells stimulated with BzATP (Example 9)). Conditions: Homo sapiens; 0.1 μM compound ("*" symbols); differentiated THP-1 cells, 250 uM BzATP; read-out: IL-1β% Inhib. @ 0.3 or 0.1 μM.
Assay type: cell-based
How it was run: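 THP-1 cells differentiated 16 h with 100 ng/mL LPS + 100 ng/mL IFN-γ, re-primed 2 h with fresh LPS 100 ng/mL, pretreated 30 min with compound, then stimulated with BzATP 250 uM final for 45 min. Supernatant IL-1β by ELISA; background-adjusted % inhibition, IC50 from four-parameter logistic fit.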
With O=C(Cc1ccc(C(F)(F)F)cc1)Nc1c(Cl)ccc2c1CCN(S(=O)(=O)c1ccc(Cl)cc1F)C2 [Compound 3016] the inhibition at 0.1 µM was 0 to 25%. In the case of O=C(Cc1ccc(C(F)(F)F)cc1)Nc1c(Cl)ccc2c1CCN(S(=O)(=O)c1ccc(Cl)c(C(F)(F)F)c1)C2 [Compound 3020], the inhibition at 0.1 µM was 0 to 25%. In the case of Cc1ccccc1S(=O)(=O)N1CCc2c(ccc(Cl)c2NC(=O)Cc2ccc(C(F)(F)F)cc2)C1 [Compound 3023], the inhibition at 0.1 µM was 0 to 25%. O=C(Cc1ccc(C(F)(F)F)cc1)Nc1c(Cl)ccc2c1CCN(S(=O)(=O)c1cc(F)ccc1F)C2 [Compound 3008] gave an inhibition at 0.1 µM of 0 to 25%.

Same assay, conditions: Homo sapiens; 0.3 μM compound ("+" symbols); differentiated THP-1 cells, 250 uM BzATP; read-out: IL-1β% Inhib. @ 0.3 or 0.1 μM
Compound O=C(Cc1ccc(C(F)(F)F)c(F)c1)Nc1cccc2c1CCN(CC(O)CCl)C2 (stereo not shown) [Compound 3057, N-[2-(3-Chloro-2-hydroxy-propyl)-1,2,3,4-tetrahydro-isoquinolin-5-yl]-2-(3-fluoro-4-trifluoromethyl-phenyl)-acetamide] has an inhibition at 0.3 µM of 26 to 50%. In the case of O=C(Cc1ccc(C(F)(F)F)c(F)c1)Nc1c(Cl)ccc2c1CCN(C(=O)/C=C/c1ccccc1)C2 [Compound 3118], the inhibition at 0.3 µM was 26 to 50%. With Cc1nn(-c2ccccc2)nc1C(=O)N1CCc2c(ccc(Cl)c2NC(=O)Cc2ccc(C(F)(F)F)c(F)c2)C1 [Compound 3108] the inhibition at 0.3 µM was 0 to 25%. For O=C(Cc1cccc(C(F)(F)F)c1F)Nc1c(Cl)ccc2c1CCN(C(=O)CCc1ccccc1)C2 [Compound 3151], the inhibition at 0.3 µM was 26 to 50%. With Cc1cc(C(=O)N2CCc3c(ccc(Cl)c3NC(=O)Cc3cccc(C(F)(F)F)c3F)C2)no1 [Compound 3180] the inhibition at 0.3 µM was 0 to 25%. For Cc1ccc(C(=O)N2CCc3c(ccc(Cl)c3NC(=O)Cc3cccc(C(F)(F)F)c3F)C2)cc1 [Compound 3183], the inhibition at 0.3 µM was 0 to 25%. For O=C(Cc1ccc(C(F)(F)F)c(F)c1)Nc1c(Cl)ccc2c1CCN(C(=O)C1CCC1)C2 [Compound 3101], the inhibition at 0.3 µM was 0 to 25%. With N#CN1CCc2c(cccc2NC(=O)Cc2ccc(C(F)(F)F)c(F)c2)C1 [Compound 3053, N-(2-Cyano-1,2,3,4-tetrahydro-isoquinolin-5-yl)-2-(3-fluoro-4-trifluoromethyl-phenyl)-acetamide] the inhibition at 0.3 µM was 0 to 25%. Cc1ccc2c(c1NC(=O)Cc1ccc(C(F)(F)F)cc1)CCN(C(=O)[C@H]1CCCN1)C2 [Compound 3060, N-[6-Methyl-2-((R)-pyrrolidine-2-carbonyl)-1,2,3,4-tetrahydro-isoquinolin-5-yl]-2-(4-trifluoromethyl-phenyl)-acetamide] showed an inhibition at 0.3 µM of at least 76%. Compound O=C(Cc1cccc(C(F)(F)F)c1F)Nc1c(Cl)ccc2c1CCN(C(=O)c1ccc(-c3ccccc3)cc1)C2 [Compound 3142] has an inhibition at 0.3 µM of 0 to 25%. CC(C)(C)OC(=O)NC(Cc1ccccc1)C(=O)N1CCc2c(cccc2NC(=O)Cc2ccc(C(F)(F)F)c(F)c2)C1 (stereo not shown) [Compound 3045] was tested, and the inhibition at 0.3 µM was 26 to 50%. For O=C(Cc1cccc(C(F)(F)F)c1F)Nc1c(Cl)ccc2c1CCN(C(=O)c1ccc(C(F)(F)F)nc1)C2 [Compound 3196], the inhibition at 0.3 µM was 0 to 25%. For CCCC(=O)N1CCc2c(ccc(Cl)c2NC(=O)Cc2ccc(C(F)(F)F)c(F)c2)C1 [Compound 3123], the inhibition at 0.3 µM was 0 to 25%. Compound Cc1ccc(C)c(S(=O)(=O)N2CCc3c(ccc(Cl)c3NC(=O)Cc3ccc(C(F)(F)F)cc3)C2)c1 [Compound 3025] has an inhibition at 0.3 µM of at least 76%. With COc1ccc(C(=O)N2CCc3c(ccc(Cl)c3NC(=O)Cc3cccc(C(F)(F)F)c3F)C2)cc1 [Compound 3141] the inhibition at 0.3 µM was 0 to 25%. Compound O=C(Cc1cccc(C(F)(F)F)c1F)Nc1c(Cl)ccc2c1CCN(C(=O)c1ccc(Cl)cc1Cl)C2 [Compound 3163] has an inhibition at 0.3 µM of 26 to 50%. O=C(Cc1ccc(C(F)(F)F)c(F)c1)Nc1c(Cl)ccc2c1CCN(C(=O)c1c(Cl)cccc1Cl)C2 [Compound 3068] showed an inhibition at 0.3 µM of 0 to 25%. With O=C(Cc1cccc(C(F)(F)F)c1F)Nc1c(Cl)ccc2c1CCN(C(=O)c1ccc(Cl)c(Cl)c1)C2 [Compound 3148] the inhibition at 0.3 µM was 0 to 25%. With CCCC(=O)N1CCc2c(ccc(Cl)c2NC(=O)Cc2cccc(C(F)(F)F)c2F)C1 [Compound 3187] the inhibition at 0.3 µM was 0 to 25%. In the case of O=C(Cc1ccc(C(F)(F)F)c(F)c1)Nc1c(Cl)ccc2c1CCN(C(=O)c1cccc(Cl)c1Cl)C2 [Compound 3115], the inhibition at 0.3 µM was 0 to 25%. CC(C)(C)OC(=O)N1CCC(OCC(=O)N2CCc3c(cccc3NC(=O)Cc3ccc(C(F)(F)F)c(F)c3)C2)CC1 [Compound 3047] gave an inhibition at 0.3 µM of 51 to 75%. Work on N#Cc1ccc(C(=O)N2CCc3c(ccc(Cl)c3NC(=O)Cc3ccc(C(F)(F)F)c(F)c3)C2)cc1 [Compound 3098] yielded an inhibition at 0.3 µM of 0 to 25%. O=C(Cc1ccc(C(F)(F)F)c(F)c1)Nc1c(Cl)ccc2c1CCN(C(=O)c1cc(F)ccc1F)C2 [Compound 3113] gave an inhibition at 0.3 µM of 0 to 25%. Work on COc1ccc(C(=O)N2CCc3c(ccc(Cl)c3NC(=O)Cc3cccc(C(F)(F)F)c3F)C2)cc1OC [Compound 3193] yielded an inhibition at 0.3 µM of 0 to 25%. Compound O=C(Cc1ccc(C(F)(F)F)c(F)c1)Nc1c(Cl)ccc2c1CCN(C(=O)C1CCCC1)C2 [Compound 3080] has an inhibition at 0.3 µM of 51 to 75%. O=C(Cc1ccc(C(F)(F)F)c(F)c1)Nc1c(Cl)ccc2c1CCN(C(=O)C1COc3ccccc3O1)C2 (stereo not shown) [Compound 3110] gave an inhibition at 0.3 µM of 0 to 25%. With CC(C)CC(=O)N1CCc2c(ccc(Cl)c2NC(=O)Cc2cccc(C(F)(F)F)c2F)C1 [Compound 3158] the inhibition at 0.3 µM was 0 to 25%. CN(C)c1ccc(C(=O)N2CCc3c(ccc(Cl)c3NC(=O)Cc3ccc(C(F)(F)F)c(F)c3)C2)cc1 [Compound 3096] was tested, and the inhibition at 0.3 µM was 26 to 50%. O=C(Cc1cccc(C(F)(F)F)c1F)Nc1c(Cl)ccc2c1CCN(C(=O)COCc1ccccc1)C2 [Compound 3160] was tested, and the inhibition at 0.3 µM was 0 to 25%. CCCc1ccc(C(=O)N2CCc3c(ccc(Cl)c3NC(=O)Cc3ccc(C(F)(F)F)c(F)c3)C2)cc1 [Compound 3084] was tested, and the inhibition at 0.3 µM was 0 to 25%. Cc1ccccc1C(=O)N1CCc2c(ccc(Cl)c2NC(=O)Cc2ccc(C(F)(F)F)c(F)c2)C1 [Compound 3112] gave an inhibition at 0.3 µM of 0 to 25%. Compound O=C(Cc1ccc(C(F)(F)F)c(F)c1)Nc1cccc2c1CCN(C(=O)CC1CCCCCC1)C2 [Compound 3043] has an inhibition at 0.3 µM of at least 76%. Work on COc1cc(OC)cc(C(=O)N2CCc3c(ccc(Cl)c3NC(=O)Cc3ccc(C(F)(F)F)c(F)c3)C2)c1 [Compound 3087] yielded an inhibition at 0.3 µM of 0 to 25%. O=C(Cc1ccc(C(F)(F)F)c(F)c1)Nc1c(Cl)ccc2c1CCN(C(=O)COc1ccc(Cl)cc1)C2 [Compound 3104] gave an inhibition at 0.3 µM of 0 to 25%.

Same assay, conditions: Homo sapiens; THP-1 cells, BzATP 250 uM, four parameter logistic fit
O=C(Cc1ccc(C(F)(F)F)c(F)c1)Nc1cccc2c1CCN(CC(O)CCl)C2 (stereo not shown) [Compound 3057, N-[2-(3-Chloro-2-hydroxy-propyl)-1,2,3,4-tetrahydro-isoquinolin-5-yl]-2-(3-fluoro-4-trifluoromethyl-phenyl)-acetamide] was tested, and the pIC50 was 6.37. Compound N#CN1CCc2c(cccc2NC(=O)Cc2ccc(C(F)(F)F)c(F)c2)C1 [Compound 3053, N-(2-Cyano-1,2,3,4-tetrahydro-isoquinolin-5-yl)-2-(3-fluoro-4-trifluoromethyl-phenyl)-acetamide] has a pIC50 of under 6.00. In the case of Cc1ccc2c(c1NC(=O)Cc1ccc(C(F)(F)F)cc1)CCN(C(=O)[C@H]1CCCN1)C2 [Compound 3060, N-[6-Methyl-2-((R)-pyrrolidine-2-carbonyl)-1,2,3,4-tetrahydro-isoquinolin-5-yl]-2-(4-trifluoromethyl-phenyl)-acetamide], the pIC50 was 7.19. With Cc1ccc2c(c1NC(=O)Cc1ccc(C(F)(F)F)c(F)c1)CCN(C(=O)C(C)(C)C)C2 [Compound 3220] the pIC50 was 7.59. CC(C)(C)OC(=O)NC(Cc1ccccc1)C(=O)N1CCc2c(cccc2NC(=O)Cc2ccc(C(F)(F)F)c(F)c2)C1 (stereo not shown) [Compound 3045] was tested, and the pIC50 was 6.41. In the case of Cc1ccc(C)c(S(=O)(=O)N2CCc3c(ccc(Cl)c3NC(=O)Cc3ccc(C(F)(F)F)cc3)C2)c1 [Compound 3025], the pIC50 was 7.08. CC(=O)N1CCc2c(ccc(C)c2NC(=O)Cc2ccc(C(F)(F)F)c(F)c2)C1 [Compound 3201] showed a pIC50 of 6.76. Cc1ccc2c(c1NC(=O)Cc1ccc(C(F)(F)F)c(F)c1)CCN(S(=O)(=O)CC(F)(F)F)C2 [Compound 3406] gave a pIC50 of 6.97. For Cc1ccc2c(c1NC(=O)Cc1ccc(C(F)(F)F)c(F)c1)CCN(C(=O)C(C)(C)O)C2 [Compound 3470], the pIC50 was 7.49. Work on Cc1ccc2c(c1NC(=O)Cc1ccc(C(F)(F)F)c(F)c1)CCN(C(=O)C1(O)CC1)C2 [Compound 3468] yielded a pIC50 of 7.16. For CC(C)(C)OC(=O)N1CCC(OCC(=O)N2CCc3c(cccc3NC(=O)Cc3ccc(C(F)(F)F)c(F)c3)C2)CC1 [Compound 3047], the pIC50 was 6.70. Compound Cc1ccc2c(c1NC(=O)Cc1ccc(C(F)(F)F)c(F)c1)CCN(S(=O)(=O)c1ccccc1F)C2 [Compound 3460] has a pIC50 of 7.38. In the case of Cc1ccc2c(c1NC(=O)Cc1ccc(C(F)(F)F)c(F)c1)CCN(C(=O)C1(C)CC1)C2 [Compound 3471], the pIC50 was 6.58. Compound O=C(Cc1ccc(C(F)(F)F)c(F)c1)Nc1cccc2c1CCN(C(=O)CC1CCCCCC1)C2 [Compound 3043] has a pIC50 of 7.08.
